Laboratory results taken from patent US8466203B2, “Method of stabilizing human eye tissue by reaction with nitrite and related agents such as nitro compounds” (priority 2006, dated 2013).

Assays:
[1] = system: porcine cornea; assay: Thermal shrinkage temperature analysis of porcine corneal strips
From the text: (§1) Thermal shrinkage temperature or denaturation temperature (Ts) is a technique that has been used for decades in studying collagen cross-linking. As collagen fibers are progressively heated, a threshold temperature is reached at which point disruption of hydrogen bonding in the collagen molecule triple helix occurs, resulting in unwinding of the triple helices. The denaturation of tertiary protein structure results in a rapid shrinkage of the tissue of up to 80%. This phenomenon can be expressed in various ways including temperature of onset of tissue shrinkage, temperature at maximal tissue shrinkage, and temperature at 50% of maximal tissue shrinkage, for example. In addition, differential scanning calorimetry (DSC) is related to thermal shrinkage temperature analysis and is widely used to evaluate biomaterial cross-linking. Thermal shrinkage temperature is essentially a simplified version of DSC and can be used effectively to screen the cross-linking efficacy of compounds. For the purposes of this study, the onset of shrinkage is considered the Ts and the temperature at which 50% of maximal shrinkage has occurred is T50. Graphs depicting the relationship between degree of shrinkage and temperature indicate differences in degree of cross-linking between groups. Thus, stabilization of collagen fiber structures through non-enzymatic cross-linking increases Ts and T50.
(§2) This system can perform multiple Ts assays in succession, allowing rapid screening of a number of potential cross-linking agents and conditions. […] Inlet and outlet fittings allow for constant circulation of heated water which is modulated by a digitally controlled water bath equipped with a water pump. The entire box is placed on a digital photo scanner connected to a Windows based computer. Beginning at 50° C. the temperature is raised at a rate of 1° C./min and serial scans are taken at every degree increase in temperature up to 80° C. […] As the tissue shrinks, the images are captured by the scanner. The image files are later analyzed for 2-dimensional area using NIH Image J software and % shrinkage calculations are made using Microsoft Excel for graphing purposes. This method obviates the need for removal of tissue pieces from the water bath with manual micrometer measurements as described by the UVR group (Spoerl, E., et al., 2004).
Using this simple, reproducible assay enables the screening of a number of compounds for cross-linking efficacy. This is first performed using porcine eyes because of their low cost. Follow up studies can be performed using human eyes. Porcine eyes are obtained within 6 hrs of sacrifice (Hatfield Meat Packing, Inc., Hatfield Pa.). Eyes showing clear corneas and intact epithelia are chosen for study. […] Each strip is then cross-linked using a nitro agent. The incubation solution is 20% Dextran (T500) [to prevent tissue swelling] in 0.2 M NaH2PO4/Na2HPO4 (pH 7.4) with various concentrations of nitro agent (i.e. 1, 10, and 100 mM). […] The samples are then placed in 2 mL microcentrifuge tubes with 1 mL of incubation solution and reacted in a 34° C. water bath (simulating corneal temperature—Girardin, F., et al., “Relationship between corneal temperature and finger temperature,” Arch. Opthalmol. 1999; 117:166-169) for 24-96 hrs. Following incubation, the samples are evaluated for degree of cross-linking using the Ts assay as described above.

[2] = system: porcine cornea; assay: Yellowing of cross-linked porcine cornea
Protocol: (§3) These images were taken from tissues cross-linked with nitrite and the β-nitro alcohols 2-nitroethanol, 2-nitro-1-propanol, and […], for 48 hrs. […] Fresh porcine corneal strips and corneoscleral complexes were obtained within 6 hrs of sacrifice and incubated at 37° C. in buffered solutions (pH 7.4) containing 20% Dextran (T500) and either 100 mM NaNO2 or 100 mM of one each of the β-nitro alcohols. After 48 hrs, the following images were obtained. […] FIGS. 13 (B and D)
As such, the effects on corneal light transmission induced by cross-linking with β-nitro alcohols was evaluated using a method adopted from Dillon et al 2004.

[3] = system: human fibroblasts; settings: Sung 1998; cited from earlier work
[4] = system: porcine sclera; assay: Thermal shrinkage temperature analysis of porcine scleral strips; settings: for shift in Ts (in words): neutral pH, up to 100 mM
From the text: as §1, §2
Using this simple, reproducible assay enables the screening of a number of compounds for cross-linking efficacy. This is first performed using porcine eyes because of their low cost. Follow up studies can be performed using human eyes. Porcine eyes are obtained within 6 hrs of sacrifice (Hatfield Meat Packing, Inc., Hatfield Pa.). Eyes showing clear corneas and intact epithelia are chosen for study. […] Each strip is then cross-linked using a nitro agent. […] Opthalmol. 1999; 117:166-169) for 24-96 hrs. Following incubation, the samples are evaluated for degree of cross-linking using the Ts assay as described above.
From the data, Ts curves are generated for each compound and condition studied. Each data point is the average of 3 independent samples.

[5] = system: porcine cornea; assay: Gross stiffness of porcine corneal strips handled with a forceps; settings: 100 mM, pH 7.4, 37° C., 48 hrs
Protocol: Fresh porcine corneal strips and corneoscleral complexes obtained within 6 hrs of sacrifice and incubated at 37° C. in buffered solutions (pH 7.4) containing 20% Dextran (T500) and either 100 mM NaNO2 or 100 mM of one each of the specified β-nitro alcohols
as §3

[6] = system: primary bovine corneal endothelial cells; settings: bovine, 48 h
[7] = 100 mM, 24 hrs reaction, pH 7.4
[8] = 1 mM reagent, pH 7.4, 37° C., 96 hrs
[9] = 10 mM reagent, pH 7.4, 37° C., 96 hrs
[10] = 100 mM reagent, pH 7.4, 37° C., 96 hrs

Row | Structure (SMILES) | shift in Ts (in words) [4] | T50 (temperature at 50% of maximal shrinkage) [4, 8] [°C] | T50 Δ (change in 50% shrinkage temperature compared to control) [4, 8] [°C] | T50 (temperature at 50% of maximal shrinkage) [4, 9] [°C] | T50 Δ (change in 50% shrinkage temperature compared to control) [4, 9] [°C] | Ti (temperature at 1% absolute shrinkage) [4, 9] [°C] | T50 (temperature at 50% of maximal shrinkage) [4, 10] [°C] | T50 Δ (change in 50% shrinkage temperature compared to control) [4, 10] [°C] | Ti (temperature at 1% absolute shrinkage) [4, 10] [°C] | also measured
1 | CCCC(CO)[N+](=O)[O-] (stereo not drawn) [2-nitro-1-pentanol] |  |  |  |  |  |  |  |  |  | shifts in Ts (in words) [1]: produce shifts in Ts; yellowing (tinting) [2]: without producing yellowing
2 | COC(=O)C1=CO[C@@H](O)[C@@H]2C(CO)=CC[C@H]12 [genipin] |  |  |  |  |  |  |  |  |  | tolerable level relative to epoxy [3]: more than 20 ×; tolerable level relative to glutaraldehyde [3]: more than 100 ×
3 | NCCCN(CCCN)/[N+]([O-])=N/O [DPTA/NONO, dipropylenetriamine NONOate, reference compound] | Neither compound was able to shift Ts parameters |  |  |  |  |  |  |  |  | T50 ([4]; 10 mM, 24 hrs reaction, pH 7.4): 66.4 °C; T50 Δ ([4]; 10 mM, 24 hrs reaction, pH 7.4): 1.1 °C; T50 [4, 7]: 66.2 °C; T50 Δ [4, 7]: 0.9 °C
4 | O=CCCCC=O [Glutaraldehyde, reference compound] |  | 68.9 | 3.6 |  |  |  |  |  |  | potency as a cross-linking agent relative to 2-nitroethanol ([4]; at moderate levels of T50 shift (~4° C.)): approximately 10 ×
5 | CC[N+](=O)[O-] [2-nitroethane, reference compound] | did not shift the Ts to any extent |  |  | 65.4 | 0.1 | 62.5 | 65.3 | 0 | 62.5 | 
6 | NCCN(CCN)/[N+]([O-])=N/O [DETA/NONO, diethylenetriaamine NONOate, reference compound] | Neither compound was able to shift Ts parameters |  |  |  |  |  | 65.5 | 0.2 |  | 
7 | CCO [Ethanol, reference compound] |  |  |  |  |  |  | 65.2 | −0.1 |  | 
8 | CCC(C(C)O)[N+](=O)[O-] (stereo not drawn) [3-nitro-2-pentanol] |  | 66.2 | 0.9 | 67.7 | 2.4 | 65.3 | 70.7 | 5.4 | 68.3 | stiffness change when handled with a forceps [5]: dramatic stiffness change; Ti (temperature at 1% absolute shrinkage) [4, 8]: 62.5 °C; highest tolerated level [6]: 2 mM
9 | NCCO [2-aminoethanol, reference compound] | only a marginal shift in Ts |  |  |  |  |  | 67.9 | 2.6 | 64.3 | 
10 | O=[N+]([O-])c1ccccc1O [2-nitrophenol, reference compound] | very little shift in Ts | 65.2 | −0.1 | 65.6 | 0.3 | 62.3 | 66.0 | 0.7 | 62.9 | Ti (temperature at 1% absolute shrinkage) [4, 8]: 62.2 °C
11 | C=O [Formaldehyde, reference compound] |  |  |  |  |  |  |  |  |  | T50 (temperature at 50% of maximal shrinkage) ([4]; pH 7.4): 67.7 °C; T50 Δ (change in 50% shrinkage temperature compared to control) ([4]; pH 7.4): 2.4 °C
12 | C[S+](C)[O-] [DMSO, reference compound] |  |  |  |  |  |  |  |  |  | T50 ([4]; 1% reagent, pH 7.4, 96 hrs): 65.0 °C; T50 Δ ([4]; 1% reagent, pH 7.4, 96 hrs): −0.3 °C
13 | CC(CO)[N+](=O)[O-] (stereo not drawn) [2-nitro-1-propanol] |  | 66.0 | 0.7 | 67.5 | 2.2 | 64.4 | 72.7 | 7.4 | 69.5 | shifts in Ts (in words) [1]: produce shifts in Ts; stiffness change when handled with a forceps [5]: intermediate effect; yellowing (tinting) [2]: without producing yellowing; Ti (temperature at 1% absolute shrinkage) [4, 8]: 63.0 °C; highest tolerated level [6]: 0.75 mM
